Measured values taken from patent publication US8664226B2, “Compound having 3-heteroarylpyrimidin-4-(3H)-one structure and pharmaceutical preparation containing same” (Kowa Company, Ltd., priority 2009, dated 2014).

Target: T1, angiotensin II type 1 receptor (Oryctolagus cuniculus, UniProt P34976)
T1 construct: By using a specimen of isolated rabbit blood vessels; from tissue; host or cells: rabbit thoracic aorta ring (New Zealand White, male)
T1 sequence (P34976 1-359): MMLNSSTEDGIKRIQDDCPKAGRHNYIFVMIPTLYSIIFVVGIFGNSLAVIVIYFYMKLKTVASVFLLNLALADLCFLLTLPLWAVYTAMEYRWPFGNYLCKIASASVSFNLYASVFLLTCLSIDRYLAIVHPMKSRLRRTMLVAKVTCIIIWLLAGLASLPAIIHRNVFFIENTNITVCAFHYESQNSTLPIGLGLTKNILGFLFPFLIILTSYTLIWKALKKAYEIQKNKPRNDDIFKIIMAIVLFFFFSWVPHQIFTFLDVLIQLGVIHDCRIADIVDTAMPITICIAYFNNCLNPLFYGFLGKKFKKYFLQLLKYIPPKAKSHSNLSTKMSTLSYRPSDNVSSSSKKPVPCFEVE
Assay: Angiotensin II antagonistic activity in isolated rabbit blood vessels
Details: angiotensin II (10 nM)-induced contraction of rabbit thoracic aorta ring
Experimental: By using a specimen of isolated rabbit blood vessels, antagonistic activity of the compounds of the invention against angiotensin II type 1 receptor was estimated from a dose-response curve of angiotensin II-induced blood vessel contraction.
During the measurement, the inside temperature of the magnus bath was maintained at 37° C. and the bath was continuously ventilated with a sufficient amount of mixed gas (95% O2 and 5% CO2). The angiotensin II-induced contraction was converted into a relative value (%) that is based on the angiotensin II (10 nM)-induced contraction in the absence of the compounds of each example. From the concentration-response curve obtained therefrom, 50% inhibition concentration (IC50 value) was calculated by using SAS Preclinical Package Ver5.0 (trade name, manufactured by SAS institute Japan Co., Tokyo, Japan), which is a statistical analysis program.

| SMILES | IC50 [nM] |
| --- | --- |
| CCCCc1nc(C)n(-c2ccccn2)c(=O)c1Cc1ccc(-c2ccccc2-c2nnn[nH]2)cc1 [Example 1, 5-{[2′-(1H-tetrazol-5-yl)biphenyl-4-yl]methyl}-6-butyl-2-methyl-3-(pyridin-2-yl)pyrimidin-4(3H)-one] | 2.1 |
| CCCCc1nc(C)n(-c2ncccc2C(F)(F)F)c(=O)c1Cc1ccc(-c2ccccc2-c2nnn[nH]2)cc1 [Example 9, 5-{[2′-(1H-tetrazol-5-yl)biphenyl-4-yl]methyl}-6-butyl-2-methyl-3-[3-(trifluoromethyl)pyridin-2-yl]pyrimidin-4(3H)-one] | 14 |
| CCCCc1nc(C)n(-c2cccc(C(F)(F)F)n2)c(=O)c1Cc1ccc(-c2ccccc2-c2nnn[nH]2)cc1 [Example 12, 5-{[2′-(1H-tetrazol-5-yl)biphenyl-4-yl]methyl}-6-butyl-2-methyl-3-[6-(trifluoromethyl)pyridin-2-yl]pyrimidin-4(3H)-one] | 230 |
| CCCCc1nc(C)n(-c2ccc([N+](=O)[O-])cn2)c(=O)c1Cc1ccc(-c2ccccc2-c2nnn[nH]2)cc1 [Example 14, 5-{[2′-(1H-tetrazol-5-yl)biphenyl-4-yl]methyl}-6-butyl-2-methyl-3-(5-nitropyridin-2-yl)pyrimidin-4 (3H)-one] | 546 |
| CCCCc1nc(C)n(-c2ncccn2)c(=O)c1Cc1ccc(-c2ccccc2-c2nnn[nH]2)cc1 [Example 17, 5-{[2′-(1H-tetrazol-5-yl)biphenyl-4-yl]methyl}-6-butyl-2-methyl-3-(pyrimidin-2-yl)pyrimidin-4 (3H)-one] | 9.2 |
| CCCCc1nc(C)n(-c2ncc(OC)cn2)c(=O)c1Cc1ccc(-c2ccccc2-c2nnn[nH]2)cc1 [Example 18, 5-{[2′-(1H-tetrazol-5-yl)biphenyl-4-yl]methyl}-6-butyl-3-(5-methoxypyrimidin-2-yl)-2-methylpyrimidin-4 (3H)-one] | 2.7 |
| CCCCc1nc(C)n(-c2ncc(O)cn2)c(=O)c1Cc1ccc(-c2ccccc2-c2nnn[nH]2)cc1 [Example 20, 5-{[2′-(1H-tetrazol-5-yl)biphenyl-4-yl]methyl}-6-butyl-3-(5-hydroxypyrimidin-2-yl)-2-methylpyrimidin-4 (3H)-one] | 6.3 |
| CCCCc1nc(C)n(-c2ncc(OCCCO)cn2)c(=O)c1Cc1ccc(-c2ccccc2-c2nnn[nH]2)cc1 [Example 25, 5-{[2′-(1H-tetrazol-5-yl)biphenyl-4-yl]methyl}-6-butyl-3-[5-(3-hydroxypropoxy)pyrimidin-2-yl]-2-methylpyrimidin-4 (3H)-one] | 24 |
| CCCCc1nc(C)n(-c2ncc(OCCS(C)(=O)=O)cn2)c(=O)c1Cc1ccc(-c2ccccc2-c2nnn[nH]2)cc1 [Example 27, 5-{[2′-(1H-tetrazol-5-yl)biphenyl-4-yl]methyl}-6-butyl-2-methyl-3-{5-[2-(methylsulfonyl)ethoxy]pyrimidin-2-yl}pyrimidin-4 (3H)-one] | 5 |
| CCCCc1nc(C)n(-c2ncc(OC3CCC(=O)CC3)cn2)c(=O)c1Cc1ccc(-c2ccccc2-c2nnn[nH]2)cc1 [Example 29, 5-{[2′-(1H-tetrazol-5-yl)biphenyl-4-yl]methyl}-6-butyl-2-methyl-3-[5-(4-oxocyclohexyloxy)pyrimidin-2-yl]pyrimidin-4 (3H)-one] | 7.7 |
| CCCCc1nc(C)n(-c2nc(Cl)cc(Cl)n2)c(=O)c1Cc1ccc(-c2ccccc2-c2nnn[nH]2)cc1 [Example 30, 5-{[2′-(1H-tetrazol-5-yl)biphenyl-4-yl]methyl}-6-butyl-3-(4,6-dichloropyrimidin-2-yl)-2-methylpyrimidin-4 (3H)-one] | 20 |
| CCCCc1nc(C)n(-c2ncc(OCc3nc(-c4ccccc4)oc3C)cn2)c(=O)c1Cc1ccc(-c2ccccc2-c2nnn[nH]2)cc1 [Example 31] | 338 |
| CCCCc1nc(C)n(-c2ncc(OCc3nc(-c4ccc(Br)o4)oc3C)cn2)c(=O)c1Cc1ccc(-c2ccccc2-c2nnn[nH]2)cc1 [Example 32, 5-{[2′-(1H-tetrazol-5-yl)biphenyl-4-yl]methyl}-3-{5-{[2-(5-bromofuran-2-yl)-5-methyloxazol-4-yl]methoxy}pyrimidin-2-yl}-6-butyl-2-methylpyrimidin-4 (3H)-one] | 428 |
| CCCCc1nc(C)n(-c2ncc(OCc3nc(-c4ccco4)oc3C)cn2)c(=O)c1Cc1ccc(-c2ccccc2-c2nnn[nH]2)cc1 [Example 33, 5-{[2′-(1H-tetrazol-5-yl)biphenyl-4-yl]methyl}-6-butyl-3-{5-{[2-(furan-2-yl)-5-methyloxazol-4-yl]methoxy}pyrimidin-2-yl}-2-methylpyrimidin-4 (3H)-one] | 956 |
| CCCCc1nc(C)n(-c2ncc(OCc3nc(-c4ccc5ccccc5c4)oc3C)cn2)c(=O)c1Cc1ccc(-c2ccccc2-c2nnn[nH]2)cc1 [Example 34, 5-{[2′-(1H-tetrazol-5-yl)biphenyl-4-yl]methyl}-6-butyl-2-methyl-3-{5-{[5-methyl-2-(naphthalen-2-yl)oxazol-4-yl]methoxy}pyrimidin-2-yl}-pyrimidin-4 (3H)-one] | 754 |
| CCCCc1nc(C)n(-c2ncc(OCCc3nc(-c4ccccc4)oc3C)cn2)c(=O)c1Cc1ccc(-c2ccccc2-c2nnn[nH]2)cc1 [Example 35, 5-{[2′-(1H-tetrazol-5-yl)biphenyl-4-yl]methyl}-6-butyl-2-methyl-3-{5-[2-(5-methyl-2-phenyloxazol-4-yl)ethoxy]pyrimidin-2-yl}pyrimidin-4 (3H)-one] | 347 |
| CCCCc1nc(C)n(-c2ncc(OCC(=O)OCC)cn2)c(=O)c1Cc1ccc(-c2ccccc2-c2nnn[nH]2)cc1 [Example 37] | 25.2 |
| CCCCc1nc(C)n(-c2ncc(OCC(=O)O)cn2)c(=O)c1Cc1ccc(-c2ccccc2-c2nnn[nH]2)cc1 [Example 38, 2-{2-{5-{[2′-(1H-tetrazol-5-yl)biphenyl-4-yl]methyl}-4-butyl-2-methyl-6-oxopyrimidin-1(6H)-yl}pyrimidin-5-yloxy}acetic acid] | 6.5 |
| CCCCc1nc(C)n(-c2ncc(OCC(N)=O)cn2)c(=O)c1Cc1ccc(-c2ccccc2-c2nnn[nH]2)cc1 [Example 39, 2-{2-{5-{[2′-(1H-tetrazol-5-yl)biphenyl-4-yl]methyl}-4-butyl-2-methyl-6-oxopyrimidin-1(6H)-yl}pyrimidin-5-yloxy}acetamide] | 1 |
| CCCCc1nc(C)n(-c2ncc(OCC(=O)NCC)cn2)c(=O)c1Cc1ccc(-c2ccccc2-c2nnn[nH]2)cc1 [Example 40, 2-{2-{5-{[2′-(1H-tetrazol-5-yl)biphenyl-4-yl]methyl}-4-butyl-2-methyl-6-oxopyrimidin-1(6H)-yl}pyrimidin-5-yloxy}-N-ethylacetamide] | 5.9 |
| CCCCc1nc(C)n(-c2ncc(OCC(=O)N(CC)CC)cn2)c(=O)c1Cc1ccc(-c2ccccc2-c2nnn[nH]2)cc1 [Example 41, 2-{2-{5-{[2′-(1H-tetrazol-5-yl)biphenyl-4-yl]methyl}-4-butyl-2-methyl-6-oxopyrimidin-1(6H)-yl}pyrimidin-5-yloxy}-N,N-diethylacetamide] | 8.7 |
| CCCCc1nc(C)n(-c2ncc(OC(Cc3ccccc3)C(=O)O)cn2)c(=O)c1Cc1ccc(-c2ccccc2-c2nnn[nH]2)cc1 (stereo not drawn) [Example 43, 2-{2-{5-{[2′-(1H-tetrazol-5-yl)biphenyl-4-yl]methyl}-4-butyl-2-methyl-6-oxopyrimidin-1(6H)-yl}pyrimidin-5-yloxy}-3-phenylpropionic acid] | 5.5 |
| CCCCc1nc(C)n(-c2ncc(OC(C(N)=O)c3ccccc3)cn2)c(=O)c1Cc1ccc(-c2ccccc2-c2nnn[nH]2)cc1 (stereo not drawn) [Example 44, 2-{2-{5-{[2′-(1H-tetrazol-5-yl)biphenyl-4-yl]methyl}-4-butyl-2-methyl-6-oxopyrimidin-1(6H)-yl}pyrimidin-5-yloxy}-2-phenylacetamide] | 963 |
| CCCCc1nc(C)n(-c2ncc(OCCCC(=O)OCC)cn2)c(=O)c1Cc1ccc(-c2ccccc2-c2nnn[nH]2)cc1 [Example 45, ethyl 4-{2-{5-{[2′-(1H-tetrazol-5-yl)biphenyl-4-yl]methyl}-4-butyl-2-methyl-6-oxopyrimidin-1(6H)-yl}pyrimidin-5-yloxy}butanoate] | 242 |
| CCCCc1nc(C)n(-c2ncc(OCCCC(=O)O)cn2)c(=O)c1Cc1ccc(-c2ccccc2-c2nnn[nH]2)cc1 [Example 46, 4-{2-{5-{[2′-(1H-tetrazol-5-yl)biphenyl-4-yl]methyl}-4-butyl-2-methyl-6-oxopyrimidin-1(6H)-yl}pyrimidin-5-yloxy}butanoic acid] | 4.3 |
| CCCCc1nc(C)n(-c2ncc(OCCCC(=O)NC)cn2)c(=O)c1Cc1ccc(-c2ccccc2-c2nnn[nH]2)cc1 [Example 48, 4-{2-{5-{[2′-(1H-tetrazol-5-yl)biphenyl-4-yl]methyl}-4-butyl-2-methyl-6-oxopyrimidin-1(6H)-yl}pyrimidin-5-yloxy}-N-methylbutanamide] | 9.9 |
| CCCCc1nc(C)n(-c2ncc(OCCCC(=O)NCCC)cn2)c(=O)c1Cc1ccc(-c2ccccc2-c2nnn[nH]2)cc1 [Example 50, 4-{2-{5-{[2′-(1H-tetrazol-5-yl)biphenyl-4-yl]methyl}-4-butyl-2-methyl-6-oxopyrimidin-1(6H)-yl}pyrimidin-5-yloxy}-N-propylbutanamide] | 14 |
